From publication PMC8652888, “Angiogenesis, Anti-Tumor, and Anti-Metastatic Activity of Novel α-Substituted Hetero-Aromatic Chalcone Hybrids as Inhibitors of Microtubule Polymerization” (Frontiers in Chemistry, 2021)
Values joined by “and” are separate entries in the source; they are usually repeats but may differ in a detail not shown here. Identical values can stand only once. Like-named read-outs stand apart in the source and are kept apart here.

Tests used:
[1] = tested on: Cyclin B1, p-Cdc2 and P21 in MCF-7 cells; experiment: Western blot of cell cycle-related proteins; type: cell-based, human; settings: for P21, band quantification / cyclinB1, band quantification / pcdc2, band quantification: two runs
Description: Cell cycle regulatory proteins Cyclin B1 and Cdc2 are key proteins to control the transition from G2 to M phase through increasing the G2/M intracellular fraction in cell cycle distribution. Some agents produce cell cycle arrest by decreasing Cyclin B1 level ([Xiao et al., 2018]), while others increase the Cyclin B1 level, depending on the cell types ([Zhang et al., 2016]).
(§1) MCF-7 cells were seeded into […] dishes at a density of 6 × 10^5/dish and incubated for 24 h. After treating the cells with the compound 7m, the cells were cultured for 48 h and washed with PBS, and then the soluble and insoluble tubulin fractions were collected. Protein quantification was performed by BCA Protein Concentration Determination Kit following centrifugation at 12,000 rpm for 10 min at 4°C. Cell lysates were separated by SDS-PAGE at 80 V constant voltage for 30–40 min. […] After 5% skim milk was blocked for 1 h, the primary antibody was added and incubated overnight before being washed three times with PBST. The secondary antibody was incubated for 2 h at room temperature the next day and subsequently washed three times with PBST. Then the signal was detected with ECL.

HUVECs [2] = experiment: Wound healing assay; type: cell-based, human; settings: 1, 5, 25 μΜ, 48 h
Description: (§2) A wound healing assay was, thus, performed to evaluate the capacity of 7m to inhibit cell motility. […] Then the invasion inhibitory activities of 7m were further detected using Transwell assay with HUVECs cells treated with 0, 1, 5, and 25 μΜ of 7m. In this assay, […] were seeded into upper chambers which were pre-coated with Matrigel matrix in order to evaluate the cellular invasion.
MCF-7 cells and HUVECs cells were grown in 24-well plates at a density of 1 × 10^6 cells per well for 24 h. Scratches were made in confluent monolayers by […] pipette tips. The media containing different concentrations of 7m were added to the Petri dishes. […] The migration distance of cells migrated to the wound area was measured manually.

MCF-7 cells = experiment: Transwell Matrigel invasion assay; type: cell-based, human
Description: In order to evaluate whether 7m could suppress migration and invasion, the MCF-7 cell culture was performed by wound healing and Transwell Matrigel assay, respectively.
(§3) The upper chamber of the Transwell chamber was filled with cells resuspended in serum-free medium, 6 × 10^4 cells per well, 100 μl per well, and the lower chamber was added with 10% FBS-containing medium prepared with different concentrations of 7m. The cells were allowed to migrate for 48 h at 37°C in an atmosphere of 5% CO2. Then the migration of cells to the underside of the filter was determined by crystal violet staining.

HepG2 = experiment: Antiproliferative activity, SRB assay; type: cell-based, human
Outline: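 Cells seeded at 3 × 10^3–4 × 10^3 per well, grown 24 h, then exposed to compounds at various concentrations for 72 h at 37 °C. TCA-fixed cells stained with 0.4% SRB; bound dye dissolved in 10 mM Tris base and OD read at 560 nm.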

U937 = experiment: Antiproliferative activity, CCK-8 assay; type: cell-based
Outline: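 U937 cells in log phase seeded at 8,000/well with compound-containing medium and incubated 72 h at 37 °C, 5% CO2. Proliferation read by CCK-8 dye after a further 3–4 h incubation, against blank-medium wells.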

[3] = tested on: Caspase-3/-7/-9 and PARP in MCF-7 cells; experiment: Western blot of apoptosis-related proteins; type: cell-based, human
Description: The Caspase family proteins are considered to be critical regulators of cell apoptosis and facilitate cellular disassembly. Among them, Caspase-9 is termed as a typical caspase and is usually activated first, which in turn activates the “executioner” of apoptosis induction, in particular, Caspase-3. It is known that the […] of poly (ADP-ribose) polymerase (PARP), a downstream substrate of Caspase-3, is a common feature of nuclear fragmentation and chromatin condensation ([Hensley and Kyprianou, 2013]). Thus, the association between 7m-induced apoptosis and the expression of these proteins was investigated by Western blot analysis. MCF-7 cells were treated with 7m at different concentrations (100, 200, and 400 nM) for 48 h.
as §1

HUVECs [4] = experiment: Transwell cell invasion experiment; type: cell-based, human; settings: 1, 5, 25 μΜ
Description: as §2, §3

## 3-(benzofuran-6-yl)-2-methyl-1-(3,4,5-trimethoxyphenyl)prop-2-en-1-one [Compound 7m]
[1]; 100nM
  P21, band quantification: 0.4949 and 0.5407
  cyclinB1, band quantification: 1.376 and 1.378
  pcdc2, band quantification: 0.4445 and 0.4619
[1]; 200nM
  P21, band quantification: 0.4098 and 0.48
  cyclinB1, band quantification: 1.5822 and 1.545
  pcdc2, band quantification: 0.4706 and 0.4291
[1]; 400nM
  P21, band quantification: 0.006743 and 0.008008
  cyclinB1, band quantification: 1.8972 and 1.928
  pcdc2, band quantification: 0.2956 and 0.3089
[1]; 100, 200, 400 nM
  Cyclin B1 expression: overexpressed
  p-Cdc2 protein level: dose-dependently decreased
HUVECs [2]
  closure of wound scratching: obviously decreased the closure of wound scratching
MCF-7 cells
  MCF-7 cells invasion: hinder the MCF-7 cells invasion in a dose-dependent manner
HepG2; 72 h, triplicate, mean ± SD, read-out: IC50 ± SD, HepG2
  IC50: 0.07 ± 0.001 µM
HepG2; supplement raw data of table 2, read-out: IC50(Hepg2)
  IC50: 0.0705 µM
U937; 72 h, triplicate, mean ± SD, read-out: IC50 ± SD, U937
  IC50: 0.082 ± 0.002 µM
U937; supplement raw data of table 2, read-out: IC50(U937)
  IC50: 0.0816 µM
[3]; 100nM, two runs
  Caspase3, band quantification: 1.6879 and 1.67
  Caspase7, band quantification: 1.25 and 1.4891
  Caspase9, band quantification: 0.8806
  Cleaved caspase 3, band quantification: 0.4362 and 0.4615
  Cleaved caspase 7, band quantification: 0.3077 and 0.3272
  Cleaved caspase 9, band quantification: 0.7024 and 0.6835
  Cleaved parp, band quantification: 0.5428 and 0.547
[3]; 200nM, two runs
  Caspase3, band quantification: 1.615 and 1.544
  Caspase7, band quantification: 1.204 and 1.374
  Caspase9, band quantification: 0.8807 and 0.8294
  Cleaved caspase 3, band quantification: 0.3538 and 0.3842
  Cleaved caspase 7, band quantification: 0.3681 and 0.3821
  Cleaved caspase 9, band quantification: 0.8845 and 0.8641
  Cleaved parp, band quantification: 0.6141 and 0.6251
  PARP, band quantification: 0.2886 and 0.4533
[3]; 400nM, two runs
  Caspase3, band quantification: 1.359 and 1.362
  Caspase7, band quantification: 1.134 and 1.286
  Caspase9, band quantification: 0.8246 and 0.7921
  Cleaved caspase 3, band quantification: 0.6252 and 0.6493
  Cleaved caspase 7, band quantification: 0.3556 and 0.4028
  Cleaved caspase 9, band quantification: 0.8063 and 0.765
  Cleaved parp, band quantification: 0.6767 and 0.7365
[3]; 100, 200, 400 nM, 48 h
  activation of Caspase-3/-7/-9: concentration-dependent activation
  cleavage of PARP: significant cleavage of PARP
HUVECs [4]
  invasion ability of cells: invasion ability of cells gradually weakened
